Molecular target: human 11β-HSD1 microsome fraction (Homo sapiens, UniProt P28845)
Experiment: Enzymatic 11beta-HSD1 test (SPA-based detection)
Assay type: biochemical
Settings: [1,2-3H]-cortisone substrate, 0.25 mM NADPH, 37° C., 1 hour; read-out: IC50 (nM), Biological activity in nanomolar
Description: Enzymatic 11beta-HSD1 Test:
To measure the activity of the compounds, an SPA-based detection method (Solly et al. 2005) was employed. First of all, 20 μl of the human 11β-HSD1 microsome fraction (0.2 μg of protein), prepared in 50 mM HEPES, 0.1% BSA (w/v), were applied to a plate with 384 wells. The test compounds (0.09 μl) were applied to the assay plate in 100% DMSO. The reaction was started by addition of 20 μl of [1,2-^3H]-cortisone (0.1 μCi/[…]) in assay buffer comprising 25 mM HEPES, 100 mM KCl, 5 mM NaCl, 2 mM MgCl2 and 0.25 mM NADPH. The plate was agitated at 37° C. for 1 hour. At the same time, a stop solution comprising 20 mg/ml SPA-PVT beads, 1.6 mg/ml monoclonal cortisol antibody and 0.01 mM SSR110887 (inhibitor from the Biovitrium patent) in 50 mM HEPES, 1 M NaCl and 1 M KCl was stirred at room temperature. To stop the reaction, 25 μl of the stop solution were added to each well. The plate was agitated gently at room temperature for 1 further hour and then centrifuged at 500 gav for 1 min, in order that the SPA beads could settle out. The plate was then read in a Wallac-1450-Microbeta unit with a standard SPA program (counting time 1 min/well). The comparative compound was glycyrrhetinic acid.
Protein and radioactive substrate were dispensed with a Biomek FX unit (Beckman Coulter) for handling liquids. The test compounds were added with a Cybi-Well equipped with a 90 nl pin tool (CyBio).
Lit.: Solly S, Mundt S S, Zokian H J, Juy-Fang Ding G, Hermanowski-Vosatka A, Strulovici B and Zheng W. High-throughput screening of 11β-Hydroxysteroid dehydrogenase type 1 in scintillation proximity format. Assay Drug Dev Technol 2005; 3:377-384.

Chain of human 11β-HSD1 microsome fraction (P28845 whole entry): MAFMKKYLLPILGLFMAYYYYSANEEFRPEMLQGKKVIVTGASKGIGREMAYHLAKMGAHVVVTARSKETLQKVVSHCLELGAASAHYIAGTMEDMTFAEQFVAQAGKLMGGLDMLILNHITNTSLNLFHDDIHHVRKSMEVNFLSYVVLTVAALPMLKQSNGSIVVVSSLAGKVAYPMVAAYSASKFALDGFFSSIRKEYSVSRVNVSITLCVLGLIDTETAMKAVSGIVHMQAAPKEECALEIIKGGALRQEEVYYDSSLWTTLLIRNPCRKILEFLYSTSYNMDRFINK

Row | SMILES | IC50
1 | CC1C(C)(C)OC(NC2CCCCC2)=NS1(=O)=O (centres unmarked) [Example 1, Cyclohexyl-(5,6,6-trimethyl-4,4-dioxo-5,6-dihydro-4H-4lambda6-[1,4,3]oxathiazin-2-yl) amine] | 139 nM
2 | O=S1(=O)CC2(CCC2)OC(NC2CCCCC2)=N1 [Example 2, Cyclohexyl-(8,8-dioxo-5-oxa-8lambda6-thia-7-azaspiro[3.5]non-6-en-6-yl)amine] | 399 nM
3 | CC1(C)CS(=O)(=O)N=C(N[C@@H](CCO)c2ccccc2)O1 [Example 5, (S)-3-(6,6-Dlmethyl-4,4-dioxo-5,6-dihydro-4H-4lambda6-[1,4,3]oxathiazin-2-ylamino)-3 phenylpropan-1-ol] | 307 nM
4 | O=S1(=O)CC2(CCCCC2)OC(NC2CCCCC2)=N1 [Example 4, Cyclohexyl-(4,4-dioxo-1-oxa-4lambda6-thia-3-azaspiro[5.5]undec-2-en-2-yl)amine] | 300 nM
5 | O=S1(=O)CC2(CCCC2)OC(NC2CCCCC2)=N1 [Example 3, Cyclohexyl-(9,9-dioxo-6-oxa-9lambda6-thia-8-azaspiro[4.5]dec-7-en-7-yl)amine] | 308 nM

These reach a lower IC50. Values come first.

Row | IC50 | SMILES
6 | 128 nM | O=S1(=O)CC2(CCC2)OC(N[C@@H](CCO)c2ccccc2)=N1 [Example 6, (S)-3-(8,8-Dioxo-5-oxa-8lambda6-thia-7-azaspiro[3.5]non-6-en-6-ylamino)-3-phenyl-propan-1-ol]
7 | 113 nM | O=S1(=O)CC2(CCCC2)OC(N[C@@H](CCO)c2ccccc2)=N1 [Example 7, (S)-3-(9,9-Dioxo-6-oxa-9lambda6-thia-8-aza-spiro[4.5]dec-7-en-7-ylamino)-3-phenyl-propan-1-ol]
8 | 66 nM | O=S1(=O)CC2(CCCCC2)OC(N[C@@H](CCO)c2ccccc2)=N1 [Example 8, (S)-3-(4,4-Dioxo-1-oxa-4lambda6-thia-3-aza-spiro[5.5]undec-2-en-2-ylamino)-3-phenyl-propan-1-ol]

— patent US8710050B2, “Di and tri- substituted oxathiazine derivatives, method for the production, method for the production thereof, use thereof as medicine and drug containing said derivatives and use thereof” (Sanofi, priority 2011, dated 2014)
